Laboratory results: paper PMC6204823, “Synthesis of 3-aminocoumarin-N-benzylpyridinium conjugates with nanomolar inhibitory activity against acetylcholinesterase” (Beilstein Journal of Organic Chemistry, 2018)

target: T1, Electrophorus electricus AChE (Electrophorus electricus, UniProt O42275); test: biochemical; conditions: not given
T1 construct: purchased Sigma-Aldrich, USA Type VI-S
Experimental: The AChE inhibitory activity of the synthesized compounds was evaluated by Ellman’s method using Electrophorus electricus AChE; donepezil hydrochloride and tacrine were used as the reference compounds.
AChE (Electrophorus electricus, Type VI-S, lyophilized powder) was purchased from Sigma-Aldrich, USA. Acetylthiocholine, 5,5′-dithiobis(2-nitrobenzoic acid), sodium dihydrogen phosphate, disodium hydrogen phosphate, and sodium hydrogen carbonate were obtained from Fluka, Switzerland. AChE inhibitory activity was […]
USA) based on Ellman’s method with slight modifications. For each assay, 200 μL of the assay medium containing 100 μL of 0.1 M phosphate buffer (pH 8), 20 μL of 3.3 mM 5,5′-dithiobis(2-nitrobenzoic acid) in 0.1 M phosphate buffer (pH 7) containing 6 mM NaHCO3, 20 μL of the test compounds at different concentrations in methanol, and 40 μL of 0.15 unit/mL AChE in phosphate buffer (pH 8) were incubated at 37 °C for 20 min. Subsequently, 20 μL of 5 mM acetylthiocholine iodide in water was added, and the absorbance was measured at 412 nm every 20 s for 3 min. The rate of each reaction was calculated by Microplate Manager software.
The blank percentage of inhibition of the tested compounds was determined by comparing the rate of the sample to the blank. The IC50 value was determined by nonlinear regression of the log inhibitor concentration versus the percentage of inhibition using GraphPad Prism6. Donepezil hydrochloride and tacrine were applied as the reference compounds. All samples were assayed in triplicate.

T1 sequence (O42275 24-633): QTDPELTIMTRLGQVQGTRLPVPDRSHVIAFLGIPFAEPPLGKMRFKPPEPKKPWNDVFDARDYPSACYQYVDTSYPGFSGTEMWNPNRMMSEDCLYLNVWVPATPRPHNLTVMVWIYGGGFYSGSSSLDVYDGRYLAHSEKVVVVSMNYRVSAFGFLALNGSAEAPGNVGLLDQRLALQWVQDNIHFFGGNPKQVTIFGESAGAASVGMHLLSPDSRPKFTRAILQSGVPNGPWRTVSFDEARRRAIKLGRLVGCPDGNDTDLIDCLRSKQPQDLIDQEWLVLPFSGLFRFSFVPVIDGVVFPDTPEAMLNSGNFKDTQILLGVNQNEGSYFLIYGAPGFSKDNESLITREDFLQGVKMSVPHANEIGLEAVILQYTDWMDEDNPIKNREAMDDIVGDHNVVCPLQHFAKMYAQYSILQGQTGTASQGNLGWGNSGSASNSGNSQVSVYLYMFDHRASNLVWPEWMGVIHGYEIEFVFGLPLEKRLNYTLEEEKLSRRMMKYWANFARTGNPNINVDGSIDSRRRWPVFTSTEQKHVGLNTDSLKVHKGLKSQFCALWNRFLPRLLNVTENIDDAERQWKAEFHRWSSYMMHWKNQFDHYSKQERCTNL

For `COc1cc2cc(NC(=O)c3cc[n+](Cc4cccc(F)c4F)cc3)c(=O)oc2cc1OC.[Br-]` [compound 9h], the “fold lower IC50 than donepezil hydrochloride” value was 35 fold.

For `COc1cc2cc(NC(=O)c3cc[n+](Cc4cccc(F)c4F)cc3)c(=O)oc2cc1OC.[Br-]` [compound 9h], the “fold lower IC50 than tacrine” value was 124 fold.

same assay, conditions: concentration producing 50% inhibition of enzyme activity; triplicate independent experiments

Point of comparison: `COc1cc2cc(NC(=O)c3cc[n+](Cc4ccccc4F)cc3)c(=O)oc2cc1OC` [compound 9e], IC50 3.05 ± 0.28 nM. Against it:
- O=C(Nc1cc2ccccc2oc1=O)c1cc[n+](Cc2ccccc2)cc1 [compound 4a] — 24-fold higher, 71.9 ± 3.4 nM
- COc1cc2cc(NC(=O)c3cc[n+](Cc4ccccc4)cc3)c(=O)oc2cc1OC [compound 9a] — 4.1-fold higher, 12.5 ± 0.71 nM
- COc1cc2cc(NC(=O)c3cc[n+](Cc4ccccc4Cl)cc3)c(=O)oc2cc1OC [compound 9b] — 2-fold higher, 6.03 ± 0.18 nM
- COc1cc2cc(NC(=O)c3cc[n+](Cc4cccc(Cl)c4)cc3)c(=O)oc2cc1OC [compound 9c] — 3.8-fold higher, 11.5 ± 0.63 nM
- COc1cc2cc(NC(=O)c3cc[n+](Cc4ccc(Cl)cc4)cc3)c(=O)oc2cc1OC [compound 9d] — 96-fold higher, 293 ± 13.6 nM
- COc1cc2cc(NC(=O)c3cc[n+](Cc4cccc(F)c4)cc3)c(=O)oc2cc1OC [compound 9f] — 1.7-fold higher, 5.04 ± 0.26 nM
- COc1cc2cc(NC(=O)c3cc[n+](Cc4ccc(F)cc4)cc3)c(=O)oc2cc1OC [compound 9g] — 1.7-fold higher, 5.31 ± 0.38 nM
- COc1cc2cc(NC(=O)c3cc[n+](Cc4cccc(F)c4F)cc3)c(=O)oc2cc1OC.[Br-] [compound 9h] — 2-fold lower, 1.53 ± 0.01 nM
- COc1cc2cc(NC(=O)c3cc[n+](Cc4c(F)cccc4F)cc3)c(=O)oc2cc1OC [compound 9i] — within 1.5-fold, 2.43 ± 0.18 nM
- COc1cc2cc(NC(=O)Cc3cc[n+](Cc4ccccc4)cc3)c(=O)oc2cc1OC [compound 10a] — 360-fold higher, 1087.7 ± 0.05 nM

same assay, conditions: read-out: % Inhibition at concentration of 1 μM, 1 μM

Point of comparison: `COc1cc2cc(N)c(=O)oc2cc1OC` [compound 8], inhibition at 1 µM 5%. Against it:
- Nc1cc2ccccc2oc1=O [compound 3, 3-aminocoumarin] — higher, 12%
- O=C(Cc1ccncc1)Nc1cc2ccccc2oc1=O [compound 5] — not separable, < 10%
- O=C(Cc1cc[n+](Cc2ccccc2)cc1)Nc1cc2ccccc2oc1=O [compound 5a] — higher, 10%
- COc1cc2cc(NC(=O)c3ccncc3)c(=O)oc2cc1OC [compound 9] — not separable, < 10%
- COc1cc2cc(NC(=O)Cc3ccncc3)c(=O)oc2cc1OC [compound 10] — not separable, < 10%

system: not listed separately; test: Cytotoxicity against MRC-5 normal embryonic lung cell; assay type: cell-based; conditions: human, MRC-5 normal embryonic lung cells; concentration of 50 μg/mL
Source text: For chlorine as a substituent, the activity followed the order of ortho > meta > para. […] For fluorine as a substituent, the activity also followed the order of ortho > meta ≈ para. […].

With `COc1cc2cc(NC(=O)c3cc[n+](Cc4cccc(F)c4F)cc3)c(=O)oc2cc1OC.[Br-]` [compound 9h] the cytotoxicity at 50 μg/mL was 0%.
